According to paper PMC10023787, “Trio-pharmacophore DNA-encoded chemical library for simultaneous selection of fragments and linkers” (Nature Communications, 2023):
Like-named read-outs stand apart in the source and are kept apart here.

Legend:
MMP-2 = target: T1, MMP-2 (Homo sapiens, UniProt P08253); assay: MMP-2 inhibition assay (fluorogenic peptide substrate); assay type: biochemical; conditions: for IC50: n.d: not detected
T1 construct: purchased Sino Biological 10082-HNAH
T1 sequence (P08253 110-660): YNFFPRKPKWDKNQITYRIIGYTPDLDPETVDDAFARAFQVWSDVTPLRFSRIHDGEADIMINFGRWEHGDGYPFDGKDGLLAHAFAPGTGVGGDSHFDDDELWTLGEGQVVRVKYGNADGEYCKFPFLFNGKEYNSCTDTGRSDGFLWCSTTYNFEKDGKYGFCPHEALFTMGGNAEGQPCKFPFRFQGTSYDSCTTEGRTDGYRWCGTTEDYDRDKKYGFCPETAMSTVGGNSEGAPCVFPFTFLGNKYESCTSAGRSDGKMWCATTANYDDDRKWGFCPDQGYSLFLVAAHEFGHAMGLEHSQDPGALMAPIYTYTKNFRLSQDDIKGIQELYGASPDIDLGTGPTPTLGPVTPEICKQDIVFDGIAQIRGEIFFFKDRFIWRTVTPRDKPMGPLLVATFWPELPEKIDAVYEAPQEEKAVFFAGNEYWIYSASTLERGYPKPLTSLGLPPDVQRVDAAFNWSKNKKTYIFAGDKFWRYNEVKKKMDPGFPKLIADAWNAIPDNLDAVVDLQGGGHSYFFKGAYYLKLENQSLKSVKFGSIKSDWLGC
Summary of the method: (§1)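 Hydrolysis of DNP-Pro-Leu-Gly-Met-Trp-Ser-Arg (25 μM final) was tracked kinetically at em 360 nm over 30 min. Enzymes, APMA-activated and at 10 nM (MMP-9) or 6.5 nM (MMP-2) final, sat 30 min at RT with inhibitor in pH 7.5 Tris buffer with CaCl2 and Brij 35 first. Logistic fitting of Vmax against concentration gave IC50, in triplicate.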

MMP-9 = target: T2, MMP-9 (Homo sapiens, UniProt P14780); assay: MMP-9 inhibition assay (fluorogenic peptide substrate); assay type: biochemical; conditions: for IC50: n.d: not detected
T2 construct: purchased Sino Biological 10327-HNAH
Summary of the method: as §1

[1] = mean ± SE, Fig. 5d unit inferred, µM, read-out: IC50
[2] = mean ± SE, Fig. 5e prints no unit, µM, read-out: IC50
[3] = Figure 5d, fragment combination joined by linker, read-out: MMP2 IC50
[4] = Figure 5d, fragment combination joined by linker, read-out: MMP9 IC50

T2 sequence (P14780 107-707 limits assumed): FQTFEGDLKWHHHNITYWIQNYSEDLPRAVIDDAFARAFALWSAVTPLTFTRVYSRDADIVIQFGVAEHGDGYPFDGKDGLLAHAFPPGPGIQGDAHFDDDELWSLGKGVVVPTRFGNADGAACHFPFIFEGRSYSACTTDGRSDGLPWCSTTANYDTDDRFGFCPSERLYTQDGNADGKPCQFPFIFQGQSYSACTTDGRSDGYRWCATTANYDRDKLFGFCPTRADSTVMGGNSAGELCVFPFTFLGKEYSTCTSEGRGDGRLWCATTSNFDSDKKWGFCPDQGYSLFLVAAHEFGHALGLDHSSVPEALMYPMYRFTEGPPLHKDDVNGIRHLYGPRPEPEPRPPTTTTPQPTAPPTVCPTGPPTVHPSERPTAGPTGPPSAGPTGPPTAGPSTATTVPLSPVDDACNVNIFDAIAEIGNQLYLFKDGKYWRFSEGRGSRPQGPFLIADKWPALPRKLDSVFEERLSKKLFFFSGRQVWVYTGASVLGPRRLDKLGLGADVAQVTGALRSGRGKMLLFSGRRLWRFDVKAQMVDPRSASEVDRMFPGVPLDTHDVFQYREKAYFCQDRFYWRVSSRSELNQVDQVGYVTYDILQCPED

`O=C(/C=C/CCCCNC(=O)c1cncc(O)c1)CC(=O)NCCNC(=O)Cn1cnc2c(oc3ccccc32)c1=O` [182+828 Linker 12] showed a remaining activity at 0.0168 µM (MMP-2; MMP-2, concentration 0.0168 µM, read-out: Mean (MMP-2, Supplementary fig 16)) of 102%, a remaining activity at 0.08 µM (MMP-2; MMP-2, concentration 0.08 µM, read-out: Mean (MMP-2, Supplementary fig 16)) of 100% and a remaining activity at 0.42 µM (MMP-2; MMP-2, concentration 0.42 µM, read-out: Mean (MMP-2, Supplementary fig 16)) of 98.9%. For the same compound, the remaining activity at 2.1 µM (MMP-2; MMP-2, concentration 2.10 µM, read-out: Mean (MMP-2, Supplementary fig 16)) was 113%, the remaining activity at 10.52 µM (MMP-2; MMP-2, concentration 10.52 µM, read-out: Mean (MMP-2, Supplementary fig 16)) was 85.5% and the remaining activity at 52.6 µM (MMP-2; MMP-2, concentration 52.60 µM, read-out: Mean (MMP-2, Supplementary fig 16)) was 48.1%. The remaining activity at 263 µM (MMP-2; MMP-2, concentration 263.00 µM, read-out: Mean (MMP-2, Supplementary fig 16)) was 6.96%, the remaining activity at 1315 µM (MMP-2; MMP-2, concentration 1315.00 µM, read-out: Mean (MMP-2, Supplementary fig 16)) was 0% and the IC50 (MMP-2; [1]) was 50.3 ± 11.1 µM. The remaining activity at 0.0466 µM (MMP-9; MMP-9, concentration 0.0466 µM, read-out: Mean (MMP-9, Supplementary fig 16)) was 97.3%, the remaining activity at 0.23 µM (MMP-9; MMP-9, concentration 0.23 µM, read-out: Mean (MMP-9, Supplementary fig 16)) was 81.8% and the remaining activity at 1.17 µM (MMP-9; MMP-9, concentration 1.17 µM, read-out: Mean (MMP-9, Supplementary fig 16)) was 81.4%. It also gave a remaining activity at 5.83 µM (MMP-9; MMP-9, concentration 5.83 µM, read-out: Mean (MMP-9, Supplementary fig 16)) of 70.8%, a remaining activity at 29.14 µM (MMP-9; MMP-9, concentration 29.14 µM, read-out: Mean (MMP-9, Supplementary fig 16)) of 63.8% and a remaining activity at 145.72 µM (MMP-9; MMP-9, concentration 145.72 µM, read-out: Mean (MMP-9, Supplementary fig 16)) of 15.2%. For the same compound, the remaining activity at 728.6 µM (MMP-9; MMP-9, concentration 728.60 µM, read-out: Mean (MMP-9, Supplementary fig 16)) was 0% and the IC50 (MMP-9; [2]) was 45.9 ± 24.2 µM.
For `O=C(CSCCNC(=O)c1cncc(O)c1)NCCNC(=O)Cn1cnc2c(oc3ccccc32)c1=O` [182+828 Linker 24], the remaining activity at 0.011 µM (MMP-2; MMP-2, concentration 0.011 µM, read-out: Mean (MMP-2, Supplementary fig 16)) was 96.4%, the remaining activity at 0.0548 µM (MMP-2; MMP-2, concentration 0.0548 µM, read-out: Mean (MMP-2, Supplementary fig 16)) was 104% and the remaining activity at 0.27 µM (MMP-2; MMP-2, concentration 0.27 µM, read-out: Mean (MMP-2, Supplementary fig 16)) was 97.6%. For the same compound, the remaining activity at 1.37 µM (MMP-2; MMP-2, concentration 1.37 µM, read-out: Mean (MMP-2, Supplementary fig 16)) was 90.8%, the remaining activity at 6.86 µM (MMP-2; MMP-2, concentration 6.86 µM, read-out: Mean (MMP-2, Supplementary fig 16)) was 86.3% and the remaining activity at 34.28 µM (MMP-2; MMP-2, concentration 34.28 µM, read-out: Mean (MMP-2, Supplementary fig 16)) was 48.6%. For the same compound, the remaining activity at 171.4 µM (MMP-2; MMP-2, concentration 171.40 µM, read-out: Mean (MMP-2, Supplementary fig 16)) was 5.35%, the remaining activity at 857 µM (MMP-2; MMP-2, concentration 857.00 µM, read-out: Mean (MMP-2, Supplementary fig 16)) was 0% and the IC50 (MMP-2; [1]) was 33.3 ± 6.4 µM. It also gave a remaining activity at 0.0548 µM (MMP-9; MMP-9, concentration 0.0548 µM, read-out: Mean (MMP-9, Supplementary fig 16)) of 95.4%, a remaining activity at 0.27 µM (MMP-9; MMP-9, concentration 0.27 µM, read-out: Mean (MMP-9, Supplementary fig 16)) of 85.7% and a remaining activity at 1.37 µM (MMP-9; MMP-9, concentration 1.37 µM, read-out: Mean (MMP-9, Supplementary fig 16)) of 87.6%. It also gave a remaining activity at 6.86 µM (MMP-9; MMP-9, concentration 6.86 µM, read-out: Mean (MMP-9, Supplementary fig 16)) of 77.5%, a remaining activity at 34.28 µM (MMP-9; MMP-9, concentration 34.28 µM, read-out: Mean (MMP-9, Supplementary fig 16)) of 52.4% and a remaining activity at 171.4 µM (MMP-9; MMP-9, concentration 171.40 µM, read-out: Mean (MMP-9, Supplementary fig 16)) of 0%. For the same compound, the remaining activity at 857 µM (MMP-9; MMP-9, concentration 857.00 µM, read-out: Mean (MMP-9, Supplementary fig 16)) was 0% and the IC50 (MMP-9; [2]) was 35.3 ± 15 µM.
`O=C(Cn1cnc2c(oc3ccccc32)c1=O)NCc1c[nH]nn1` [182_787 1] was tested, and the IC50 (MMP-2; [3]) was 95.5 µM and the IC50 (MMP-9; [4]) was 143 µM.
`O=C(CCC(=O)NCc1c[nH]nn1)NCCCCCCCCNC(=O)Cn1cnc2c(oc3ccccc32)c1=O` [182_787 4] was tested, and the IC50 (MMP-2; [3]) was 193 µM and the IC50 (MMP-9; [4]) was 134 µM.
With `O=C(CSCCNC(=O)Cn1cnc2c(oc3ccccc32)c1=O)NCc1c[nH]nn1` [182_787 24] the IC50 (MMP-2; [3]) was 45.9 µM and the IC50 (MMP-9; [4]) was 126 µM.
`Cn1c(O)nc2cc(C(=O)NCCCCC=CC(=O)CC(=O)NCCNC(=O)Cn3cnc4c(oc5ccccc54)c3=O)cnc21` [182_826 12] was tested, and the IC50 (MMP-2; [3]) was 62.3 µM and the IC50 (MMP-9; [4]) was 131 µM.
`O=C(Cn1cnc2c(oc3ccccc32)c1=O)NCCNC(=O)c1cncc(O)c1` [182_828 1] gave an IC50 (MMP-2; [3]) of 77.1 µM and an IC50 (MMP-9; [4]) of 92.1 µM.
